Reference: patent publication US20110158919A1, “AROMA COMPOSITION COMPRISING O-COUMARIC ACID TO REDUCE OR SUPPRESS UNDESIRABLE TASTE IMPRESSIONS OF SWEETENERS” (SYMRISE AG, priority 2009, published 2011)
Structures can show the parent of a compound that is named as a salt.

Key:
[1] = Stability test for OCA in a carbonated soft drink; assay type: physicochemical; settings: 5000 Lux at 37° C. for 9 days
Protocol: Test 2: Stability Test for OCA in a Carbonated Soft Drink A carbonated soft drink was prepared consisting of water, 10 ppm trans-o-coumaric acid, 350 ppm Rebaudioside A, 250 ppm sodium benzoate, 150 ppm potassium sorbate, 0.1 wt.-% of lemon/lime extract flavour and 0.15 wt.-% sodium citrate/citric acid. The latter was added to obtain a pH of 3.0±0.2. Said mixture was carbonated with 2.7 volumes of carbon dioxide. This PET-bottled drink was stressed with 5000 Lux at 37° C. for 9 days, thereby simulating a storage time (shelf life) of about 9 months at 20° C. At the end of the test the soft drink still contained 8 ppm of OCA, corresponding to an OCA-stability of 80% after a storage time of about 9 months.

[2] = Solubility of homoeriodictyol salts; assay type: physicochemical; settings: in words

Structure (SMILES) | OCA content of the soft drink at the end of the test ([1]; 10 ppm at start, PET-bottled carbonated soft drink, pH 3.0±0.2) | OCA-stability ([1]; simulating a storage time of about 9 months at 20° C.) | solubility compared with pure homoeriodictyol sodium salt [2]
O=C(O)/C=C/c1ccccc1O [OCA, (E)-3-(2-hydroxyphenyl)-2-propenoic acid] | 8 ppm | 80% | –
COc1cc([C@@H]2CC(=O)c3c(O)cc(O)cc3O2)ccc1O [homoeriodictyol potassium salt] | – | – | better solubility
